Reference: ChEMBL document CHEMBL1126220, “Synthesis and antifolate properties of 5,10-ethano-5,10-dideazaaminopterin” (J Med Chem, 1992)

Assays:
[1] = Influx with respect to the MTX.; type: functional
Dihydrofolate reductase = biological target: T1, Dihydrofolate reductase (Mus musculus, UniProt P00375); experiment: Inhibition of the dihydrofolate reductase enzyme(DHFR) derived from L1210 murine leukemia cells.; type: cell-based
T1 sequence (P00375 whole entry): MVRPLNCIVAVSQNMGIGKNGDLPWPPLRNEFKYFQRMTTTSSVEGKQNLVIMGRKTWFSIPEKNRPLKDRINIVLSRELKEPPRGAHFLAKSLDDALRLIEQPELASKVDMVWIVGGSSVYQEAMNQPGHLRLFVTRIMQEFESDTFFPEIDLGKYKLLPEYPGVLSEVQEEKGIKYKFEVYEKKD

L1210 = experiment: Concentration required to inhibit 50% growth of L1210 cells in culture.; type: functional, cell-based; settings: Mus musculus

SMILES | Relative influx [1] | Ki (Dihydrofolate reductase) [nM] | IC50 (L1210) [nM]
CCC(Cc1cnc2nc(N)nc(N)c2c1)c1ccc(C(=O)NC(CCC(=O)O)C(=O)O)cc1 (stereo not given) | 1.32 |  | 
Nc1nc(N)c2c3c(cnc2n1)CC(c1ccc(C(=O)NC(CCC(=O)O)C(=O)O)cc1)CC3 (stereo not given) | 3.3 | 0.017 | 4.5
CC(Cc1cnc2nc(N)nc(N)c2c1)c1ccc(C(=O)NC(CCC(=O)O)C(=O)O)cc1 (stereo not given) | 1.43 |  | 
